Source: a melting point compilation (Tetko et al.; mined from patent text by program, amines drawn as free bases though some values may be those of a salt)

melting point [°C]	SMILES
233	NC(=O)c1[nH]cnc1OC(=O)C=Cc1ccc(C=O)cc1
62 to 63.8	CC(C)C[C@H](NC(=S)Nc1ccccc1)C(=O)N[C@H]1CCOC1O (some centres undefined)
> 265	COc1cc2cc3[nH]cc(C#N)c(=O)c3cc2cc1OC
59 to 66	CC(C)C[C@H](NC(=O)OC(C)(C)C)C(=O)N1CCN(C(c2ccc(F)cc2)c2ccc(F)cc2)CC1
216 to 217	O=C(NC(=S)Nc1nc(-c2ccc3c(c2)CCCC3)cs1)c1cccc2ccccc12
248 to 252	COc1ccc(-c2cnc3cc4cnn(CC#N)c4cc3n2)cc1F
135 to 137	CCc1nc2ccc(OC(F)(F)F)cc2[nH]1
152 to 155	Cc1ccc(S(=O)(=O)n2cc(Br)c(C)c2C=O)cc1
114 to 115	COc1ccc(C2c3cc(OC)c(OC)cc3CCN2C(=O)NCCN(C(C)C)C(C)C)cc1OC (centres undefined)
140	CC(C)(c1ccc(O)cc1)c1ccc(O)c(C(=O)Oc2ccccc2)c1
142	CN(C)C(=O)Nc1ccc(O)c([N+](=O)[O-])c1
142 to 143	CCOCCNS(=O)(=O)NC(=O)OCc1ccc(OCCOC)cc1Oc1ncc(C(F)(F)F)cc1Cl
152 to 154	O=C(O)CCC(CSc1nc2ccccc2s1)C(=O)O (centres undefined)
139 to 140	O=c1ccn(-c2cccc(C(F)(F)F)c2)nc1-c1ccnn1-c1ccccc1Cl
195 to 196	Clc1ccc2[nH]c(-c3ccccc3)cc2c1
111 to 116	COc1cc(C2CCN(C(=O)C3CCN3)CC2)ccc1Nc1ncc2ccc(-c3ccccc3N(C)S(C)(=O)=O)n2n1 (centres undefined)
93.1 to 94.4	CCOc1ccc(-c2nc(CCC(=O)c3nccs3)cs2)cc1OCC
320 to 321	N=c1[nH]c2ccncc2c2nc(-c3ccco3)nn12
50 to 52	O=[N+]([O-])c1c(Cl)nc(C2CC2)nc1Cl

melting point [°C]	SMILES
148 to 149	COc1ccc(N2CCN(c3c(C)c(C)c4c(c3C)C(O)(c3ccoc3)C(C)(C)O4)CC2)cc1 (centres undefined)
152 to 155	CCOC(=O)CNC(=O)c1nnc2ccc(NCCCN3CCC(OC(c4ccccc4)c4ccccc4)CC3)nn12
201 to 204	CCC(=O)N1CCC(NC(=O)Nc2ccc(C(=O)OC)cc2)CC1
76 to 78	Nc1csc(-c2ccccc2)c1
215	CNc1cc(NC)nc(NC)n1
266	CCn1cc(C(=O)O)c(=O)c2cc(Br)c(N3CCOCC3)cc21
91 to 93	COc1ccc(OC)c2c1CC[C@](O)(C(=O)O)C2
173 to 175	Cc1cc(C2(C(F)(F)F)CC(c3ccc(C(N)=O)cc3)=NO2)ccc1NC(=O)c1cccc(I)c1C(=O)NC(C)C (centres undefined)
81 to 85	CC(=O)SC(CC(=O)c1ccc(C)cc1)C(=O)O (centres undefined)
159 to 160	O=C(O)C(=O)c1ccccc1Nc1c(Cl)cccc1Cl
153 to 154	COc1nc(C)nc(NN)c1Cl
164	O=C(Nc1ccccc1S(=O)(=O)c1ccccc1)N[C@@H](Cc1ccc(Oc2nccc3ccncc23)cc1)C(=O)O
173 to 176	CN(N)C(=O)NC1c2ccccc2Oc2ccccc21
234 to 236	O=c1ccc(-c2cccc(-n3ccnc3)c2)n[nH]1
112 to 114	COc1cccc(NS(=O)(=O)c2sccc2C2OCCO2)c1
95 to 100	CN(CCC(Oc1ccc(S(=O)(=O)c2ccccc2)cc1)c1ccccc1)CC(=O)O (centres undefined)
170 to 172	COc1cc2c(cc1OCc1ccccc1)C1Cc3c(Cl)cc(OC)c(OC(=O)c4ccccc4)c3CN1CC2 (centres undefined)
148 to 150	O=C(Nc1ccccc1)C1=C(c2ccccc2)C(c2ccccc2)OC1=O (centres undefined)
176 to 177	Cc1nc(N2CCN(Cc3ccccc3)C2=O)sc1C(=O)NCc1cc(F)ccc1F

melting point [°C]	SMILES
226 to 228	COC(=O)c1ccc(Cc2c(C)[nH]c(C)cc2=O)cc1
107 to 108	CCOC(=O)CN1CCN(C2=Nc3ccccc3Cc3ccccc32)CC1
172 to 173	Cc1c2ccccc2c(-c2ccc(OS(C)(=O)=O)cc2)c2c1sc1ccccc12
142 to 144	CCCCOCCOc1ccc(-c2ccc3c(c2)C=C(C(=O)Nc2ccc(S(=O)Cc4ncon4)cc2)CCN3CC(C)C)cc1 (centres undefined)
> 310	COc1cc2[nH]c(S)nc2cc1C
158 to 161	O=C(c1ccccc1F)c1cc(Cl)ccc1C#CCN1C(=O)c2ccccc2C1=O
247 to 249	COc1cccc(Nc2ncc(C(=O)O)c(=O)[nH]2)c1
83 to 85.5	CCCCCS(=O)(=O)NC(=O)/C=C/c1ccc(OC(COCC)COCC)cc1Oc1ncc(C(F)(F)F)cc1Cl
134 to 135	COc1c(C)c(C)c(OC)c(C(O)(c2cccnc2)C2CCCCC2)c1C (centres undefined)
234 to 235	CCNc1nc(-c2ccc(NC(=O)OCc3cccnc3)cc2)ccc1C(=O)NC
118 to 120	NC(=O)CC[C@H](NC(=O)CCc1ccc(OCc2ccccc2)cc1OCc1ccccc1)C(=O)N1CCN(c2ccccc2)CC1
73 to 76	CCCC(NOCC)=C1C(=O)CC(c2cc3ccccc3s2)CC1=O (centres undefined)
120 to 121	CCCCCCCCCCCCCCCCCCOc1cn(Cc2ccccc2)c(CO)cc1=O
129 to 131	C/C(=N\OC(=O)CN(C)C)[C@H]1CC[C@H]2[C@@H]3CCC4=CC(=O)CC[C@]4(C)[C@H]3CC[C@]12C
187 to 189	C#CC(C)(C)OC(=O)Nc1ccc(-c2ncn(-c3ccc(C(F)(F)F)cc3)n2)cc1
188 to 189	CC(C)n1nc(-c2nc(NCCN(C)C)c(N)nc2-c2ccccc2)ccc1=O
91 to 93	COC(=O)c1ccc(Cl)cc1NC(=O)CSc1ccc(C)cc1
140 to 142	CNC(=NC#N)Nc1cccc(C(=O)NCCSCc2ccc(CN(C)C)o2)c1

More lines, now with the values behind:

SMILES	melting point [°C]
N#CC(O)C1(F)CCN(C(=O)c2ccc(F)c(Cl)c2)CC1 (centres undefined)	139 to 140
CC(=O)OC(C)C=C(C)c1ccc(-c2ccccc2)cc1 (centres undefined)	62 to 64
COC(=O)c1ccc(-c2nc(-c3ccc(OC(F)F)cc3)cs2)cc1	146 to 148
Clc1nccnc1N1CCNCC1	47 to 53
CC(C)Nc1cccnc1N1CCN(C(=O)c2ccc(C(=O)NCCCO)cc2)CC1	110 to 111
COCCn1c(C)cc(C(=O)c2cccc(Cl)c2)c1C	112 to 113
CC=C1CCC2C3CCC4CC(O)C(OCC)CC4(C)C3C(N(C)C)CC12C (centres undefined)	63 to 78
O=C(NCCOc1ccc(CC(Oc2ccccc2)C(=O)O)cc1)c1ccc(-c2ccc(C(F)(F)F)cc2)cc1 (centres undefined)	217 to 218
CCOC(=O)c1c2n(c3c(F)c(F)c(F)cc3c1=O)C(C)S2 (centres undefined)	206 to 210
CCCCNC(=O)C(O[Si](C)(C)C(C)(C)C)C(C)(C)C (centres undefined)	41 to 42
CCOC(=O)Cc1ccc(NC(=O)C(COc2ccccc2)NS(=O)(=O)c2ccc(Br)cc2)cc1 (racemic)	150 to 153
COc1cc(-c2cnc3[nH]cc(C(=O)Cc4ccccc4)c3n2)cc(OC)c1OC	226 to 227
COc1ccc(C2(C#Cc3cccc(-c4noc(C)n4)c3)CCCC(=O)C2)cc1OC1CCCC1 (centres undefined)	116 to 118
Oc1ccnn1-c1c(Cl)cc(C(F)(F)F)cc1Cl	223 to 225
COc1ccc(-c2cc(=Nc3c(C)cc(C)cc3C)n(C)c(Cl)n2)cc1OC	159 to 162
Cc1cc(SC(C)C)c(NC(=O)CCCCCCSc2nc3ccccc3o2)c(SC(C)C)n1	76 to 78
O=C(O)Cc1csc(N=C2SC[C@@H]3Cc4ccccc4CN23)n1	185
O=C1NC(=O)C(Cc2ccccc2)N1 (centres undefined)	187 to 189
O=C1NC(=O)C(=Cc2ccc(-c3cc(C45CC6CC(CC(C6)C4)C5)c4oc(NC(=O)C(F)(F)F)nc4c3)nc2)S1	353
Cn1c2c(c3ccccc31)CC(OC(=O)c1ccccc1)CC2 (centres undefined)	93 to 96
COc1ccc(Br)c(OC)c1C#N	113 to 115
O=C(Nc1ccccc1)O[C@@H]1CN=C(c2cccc(Cl)c2)O[C@H]1c1ccccc1 (racemic)	126

SMILES	melting point [°C]
OCC1(CO)CC2C=CC1C2 (centres undefined)	110
O=C1CCc2c(Cl)sc(Cl)c21	168 to 170
CC(C)(C(=O)O)c1ccc(OCc2ccccc2)cc1	128 to 130
Cc1c(C(=O)c2cnn(C(C)C)c2O)ccc2sc(=O)n(C)c12	175 to 177
CC(C)COc1ccc2c(c1)CCC1C2=CCC2(C)C(=O)CCC12 (centres undefined)	107 to 108
Cc1cc(NCCO)c2[nH]ncc2n1	213 to 216
CC(=O)Oc1ccc(C#C[Si](C)(C)C)cc1	45
CC(Cn1ncc2ccc(OCc3ccccc3)cc21)O[Si](C)(C)C(C)(C)C (centres undefined)	56 to 58
CC(C)c1cccc(C(C)C)c1NC(=O)C(C)C1c2ccccc2Oc2ccccc21 (centres undefined)	210 to 211
CSc1cccc2nc(SCCN3CCN(CC(=O)Nc4c(C(C)C)cccc4C(C)C)CC3)oc12	120 to 121
CCN(CC)C(=O)CCS(=O)c1cc(-c2ccccc2)nc2ccccc12 (centres undefined)	130
Cn1ncc(C23CCCN(CC2)C3)n1 (centres undefined)	65 to 70
O=C(NCc1ccncc1)c1ccccc1	177
COC(=O)c1ccccc1Oc1nc(Oc2ccccc2C(=O)OC)nc(Oc2ccccc2C(=O)OC)n1	58 to 63
CCCN1CCCC(NC(=O)C(Cc2ccc(OCc3ccccc3)cc2)NC(=O)C(CC(C)C)N(C)Cc2ccc(N(C)C)cc2)C1 (centres undefined)	131 to 133
O=S(=O)(O)c1ccc(N(Cc2ccc(F)cc2)Cc2ccc(Cl)cc2)cc1	> 250
CNC(=O)N1CCN(C(=O)CN2CCCC2=O)CC1	203 to 205
CCCONC(=O)c1c(Cl)ccc(C(=O)OC)c1Cl	80 to 81
CO[C@H]1CC[C@H]([C@H]2CC[C@H](CCC=O)CC2)CC1	36
Nc1ccc(OCc2ccccn2)nn1	114 to 115
O=C(O)CCN1CCN2c3ccccc3Cc3ccccc3C2C1 (centres undefined)	195 to 197
